In brackets after ≈: the same amount, converted by molar mass.
How the values were obtained:
Assay in all cases: microbe, parasite or virus in culture
Set-up in all cases: CLSI broth microdilution MIC in MHB-II
[1] = system: T1, Enterococcus faecalis 26; settings: Enterococcus faecalis, 26, 18 h, read-out: MIC
T1 construct: 26
Protocol: (§1) MICs were determined by a microdilution broth method as recommended by the CLSI with MHB-II. For MICs of stable analogues, a 2-fold dilution of each compound was prepared in DMSO at 100-fold of the final concentration. The strains were inoculated with 5 × 10^5 cfu/mL in 96-well plates (each 100 μL/well), and 1 μL of DMSO solutions of the samples were added (contained less than 1% DMSO). The plates were incubated at 37 °C for 18 h and then MICs were determined. MICs of stable analogues in Table 1 were the highest value in three trials. MICs in Supplementary Table 1 were determined in one trial.

[2] = system: Enterococcus faecium 1; settings: Enterococcus faecium, 1, 18 h, read-out: MIC
Protocol: as §1

[3] = system: T2, Enterococcus faecalis 27; settings: Enterococcus faecalis, 27, 18 h, read-out: MIC
T2 construct: 27
Protocol: as §1

[4] = system: T3, Staphylococcus aureus #1958; settings: Staphylococcus aureus, 18 h, read-out: MIC
T3 construct: #1958
Protocol: as §1

[5] = system: T4, Staphylococcus aureus #2933; settings: Staphylococcus aureus, 18 h, read-out: MIC
T4 construct: #2933
Protocol: as §1

[6] = system: T5, Staphylococcus aureus #2110; settings: Staphylococcus aureus, 18 h, read-out: MIC
T5 construct: #2110
Protocol: as §1

[7] = system: T6, Staphylococcus aureus #2334; settings: Staphylococcus aureus, 18 h, read-out: MIC
T6 construct: #2334
Protocol: as §1

[8] = system: Enterococcus faecium 7; settings: Enterococcus faecium, 7, 18 h, read-out: MIC
Protocol: as §1

[9] = system: Enterococcus faecium 4; settings: Enterococcus faecium, 4, 18 h, read-out: MIC
Protocol: as §1

[10] = system: T7, Staphylococcus aureus #2934; settings: Staphylococcus aureus, 18 h, read-out: MIC
T7 construct: #2934
Protocol: as §1

[11] = system: T8, Enterococcus faecium 10; settings: Enterococcus faecium, 10, 18 h, read-out: MIC
T8 construct: 10
Protocol: as §1

[12] = system: T9, Enterococcus faecium 11; settings: Enterococcus faecium, 11, 18 h, read-out: MIC
T9 construct: 11
Protocol: as §1

[13] = system: Enterococcus faecium 5; settings: Enterococcus faecium, 5, 18 h, read-out: MIC
Protocol: as §1

[14] = system: Enterococcus faecium 8; settings: Enterococcus faecium, 8, 18 h, read-out: MIC
Protocol: as §1

[15] = system: T10, Enterococcus faecalis 30; settings: Enterococcus faecalis, 30, 18 h, read-out: MIC
T10 construct: 30
Protocol: as §1

[16] = system: T11, Enterococcus faecalis 21; settings: Enterococcus faecalis, 21, 18 h, read-out: MIC
T11 construct: 21
Protocol: as §1

[17] = system: Enterococcus faecium 2; settings: Enterococcus faecium, 2, 18 h, read-out: MIC
Protocol: as §1

[18] = system: T12, Staphylococcus aureus #2310; settings: Staphylococcus aureus, 18 h, read-out: MIC
T12 construct: #2310
Protocol: as §1

[19] = system: T13, Staphylococcus aureus #2071; settings: Staphylococcus aureus, 18 h, read-out: MIC
T13 construct: #2071
Protocol: as §1

[20] = system: T14, Enterococcus faecalis 28; settings: Enterococcus faecalis, 28, 18 h, read-out: MIC
T14 construct: 28
Protocol: as §1

[21] = system: T15, Staphylococcus aureus #2932; settings: Staphylococcus aureus, 18 h, read-out: MIC
T15 construct: #2932
Protocol: as §1

[22] = system: Enterococcus faecium 9; settings: Enterococcus faecium, 9, 18 h, read-out: MIC
Protocol: as §1

[23] = system: Enterococcus faecium 3; settings: Enterococcus faecium, 3, 18 h, read-out: MIC
Protocol: as §1

[24] = system: T16, Enterococcus faecalis 24; settings: Enterococcus faecalis, 24, 18 h, read-out: MIC
T16 construct: 24
Protocol: as §1

[25] = system: T17, Staphylococcus aureus #2935; settings: Staphylococcus aureus, 18 h, read-out: MIC
T17 construct: #2935
Protocol: as §1

[26] = system: T18, Enterococcus faecalis 22; settings: Enterococcus faecalis, 22, 18 h, read-out: MIC
T18 construct: 22
Protocol: as §1

Compound	MIC [1]	MIC [2]	MIC [3]	MIC [4]	MIC [5]	MIC [6]	MIC [7]	MIC [8]	MIC [9]	MIC [10]	MIC [11]	MIC [12]	MIC [13]	MIC [14]	MIC [15]	MIC [16]	MIC [17]	MIC [18]	MIC [20]	MIC [21]	other results
C[C@H]1COc2c(N3CCN(C)CC3)c(F)cc3c(=O)c(C(=O)O)cn1c23 [levofloxacin]	0.5 µg/mL (≈ 1.38 µM)	> 32 µg/mL	1 µg/mL (≈ 2.77 µM)	> 32 µg/mL	> 32 µg/mL	> 32 µg/mL	> 32 µg/mL	0.5 µg/mL (≈ 1.38 µM)	> 32 µg/mL	> 32 µg/mL	> 32 µg/mL	> 32 µg/mL	32 µg/mL (≈ 88.6 µM)	> 32 µg/mL	1 µg/mL (≈ 2.77 µM)	0.5 µg/mL (≈ 1.38 µM)	> 32 µg/mL	> 32 µg/mL	1 µg/mL (≈ 2.77 µM)	> 32 µg/mL	MIC [19]: 0.13 µg/mL (≈ 0.36 µM); MIC [22]: > 32 µg/mL; MIC [23]: > 32 µg/mL; MIC [24]: 1 µg/mL (≈ 2.77 µM); MIC [25]: > 32 µg/mL; MIC [26]: 1 µg/mL (≈ 2.77 µM)
CC1(C)S[C@@H]2[C@H](NC(=O)[C@H](N)c3ccccc3)C(=O)N2[C@H]1C(=O)O [ampicillin]	1 µg/mL (≈ 2.86 µM)	> 128 µg/mL	1 µg/mL (≈ 2.86 µM)	32 µg/mL (≈ 91.6 µM)	32 µg/mL (≈ 91.6 µM)	16 µg/mL (≈ 45.8 µM)	16 µg/mL (≈ 45.8 µM)	0.5 µg/mL (≈ 1.43 µM)	128 µg/mL (≈ 366 µM)	16 µg/mL (≈ 45.8 µM)	> 128 µg/mL	128 µg/mL (≈ 366 µM)	128 µg/mL (≈ 366 µM)	128 µg/mL (≈ 366 µM)	0.5 µg/mL (≈ 1.43 µM)	1 µg/mL (≈ 2.86 µM)	128 µg/mL (≈ 366 µM)	32 µg/mL (≈ 91.6 µM)	1 µg/mL (≈ 2.86 µM)	32 µg/mL (≈ 91.6 µM)	MIC [19]: 32 µg/mL (≈ 91.6 µM); MIC [22]: > 128 µg/mL; MIC [23]: > 128 µg/mL; MIC [24]: 0.5 µg/mL (≈ 1.43 µM); MIC [25]: 16 µg/mL (≈ 45.8 µM); MIC [26]: 1 µg/mL (≈ 2.86 µM)
CN[C@H](CC(C)C)C(=O)N[C@H]1C(=O)N[C@@H](CC(N)=O)C(=O)N[C@H]2C(=O)N[C@H]3C(=O)N[C@H](C(=O)N[C@H](C(=O)O)c4cc(O)cc(O)c4-c4cc3ccc4O)[C@H](O)c3ccc(c(Cl)c3)Oc3cc2cc(c3O[C@@H]2O[C@H](CO)[C@@H](O)[C@H](O)[C@H]2O[C@H]2C[C@](C)(N)[C@H](O)[C@H](C)O2)Oc2ccc(cc2Cl)[C@H]1O [vancomycin]	1 µg/mL (≈ 0.69 µM)	1 µg/mL (≈ 0.69 µM)	1 µg/mL (≈ 0.69 µM)	1 µg/mL (≈ 0.69 µM)	1 µg/mL (≈ 0.69 µM)	2 µg/mL (≈ 1.38 µM)	2 µg/mL (≈ 1.38 µM)	0.5 µg/mL (≈ 0.345 µM)	1 µg/mL (≈ 0.69 µM)	1 µg/mL (≈ 0.69 µM)	1 µg/mL (≈ 0.69 µM)	1 µg/mL (≈ 0.69 µM)	1 µg/mL (≈ 0.69 µM)	1 µg/mL (≈ 0.69 µM)	1 µg/mL (≈ 0.69 µM)	1 µg/mL (≈ 0.69 µM)	1 µg/mL (≈ 0.69 µM)	2 µg/mL (≈ 1.38 µM)	1 µg/mL (≈ 0.69 µM)	2 µg/mL (≈ 1.38 µM)	MIC [22]: 1 µg/mL (≈ 0.69 µM); MIC [23]: 1 µg/mL (≈ 0.69 µM); MIC [24]: 1 µg/mL (≈ 0.69 µM); MIC [26]: 1 µg/mL (≈ 0.69 µM)

Reference: article PMC11178787, “Development of a natural product optimization strategy for inhibitors against MraY, a promising antibacterial target” (Nature Communications, 2024)
